Source: patent publication US12540120B2, “Herbicidal compounds” (SYNGENTA CROP PROTECTION AG, priority 2019, dated 2026)

Columns and labels:
Format in all cases: in vivo
Zea Mays (ZEAMX) [1] = experiment: B3 Post-Emergence Efficacy—Test 3; conditions: post-emergence application, 250 g/ha, evaluated after 13 days (Test 3)
Experimental: (§1) B3 Post-Emergence Efficacy—Test 3 Seeds of a variety of test species are sown in standard soil in pots:—Amaranthus retoflexus (AMARE), Setaria faberi (SETFA), Echinochloa crus-galli (ECHCG), Ipomoea hederacea (IPOHE), Zea Mays (ZEAMX), Abutilon theophrasti (ABUTH). After 8 days cultivation (post-emergence) under controlled conditions in a glasshouse (at 24/16° C., day/night; 14 hours light; 65% humidity), the plants are sprayed with an aqueous spray solution derived from the formulation of the technical active ingredient in acetone/water (50:50) solution containing 0.5% Tween 20 (polyoxyethylene sorbitan monolaurate, CAS RN 9005-64-5). Compounds are applied at 250 g/ha. The test plants are then grown in a glasshouse under controlled conditions in a glasshouse (at 24/16° C., day/night; 14 hours light; 65% humidity) and watered twice daily. After 13 days, the test is evaluated for the percentage damage caused to the plant. The biological activities are assessed on a five point scale (5=80-100%; 4=60-79%; 3=40-59%; 2=20-39%; 1=0-19%). A blank value in the table is indicative that the compound was not tested on that species.

Setaria faberi (SETFA) [2] = experiment: B3 Post-Emergence Efficacy—Test 3; conditions: post-emergence application, 250 g/ha, evaluated after 13 days (Test 3)
Experimental: as §1

[3] = tested on: Ipomoea hederacea (IPOHE); experiment: B3 Post-Emergence Efficacy—Test 3; conditions: post-emergence application, 250 g/ha, evaluated after 13 days (Test 3)
Experimental: as §1

[4] = tested on: Abutilon theophrasti (ABUTH); experiment: B3 Post-Emergence Efficacy—Test 3; conditions: post-emergence application, 250 g/ha, evaluated after 13 days (Test 3)
Experimental: as §1

[5] = tested on: Amaranthus retoflexus (AMARE); experiment: B3 Post-Emergence Efficacy—Test 3; conditions: post-emergence application, 250 g/ha, evaluated after 13 days (Test 3)
Experimental: as §1

Zea Mays (ZEAMX) [6] = experiment: B6 Pre-Emergence Efficacy—Test 3; conditions: pre-emergence application, 250 g/ha, evaluated after 13 days (Test 3)
Experimental: (§2) B6 Pre-Emergence Efficacy—Test 3 Seeds of a variety of test species were sown in standard soil in pots: Amaranthus retoflexus (AMARE), Setaria faberi (SETFA), Echinochloa crus-galli (ECHCG), Ipomoea hederacea (IPOHE), Zea Mays (ZEAMX), Abutilon theophrasti (ABUTH). After cultivation for one day (pre-emergence) under controlled conditions in a glasshouse (at 24/16° C., day/night; 14 hours light; 65% humidity), the plants were sprayed with an aqueous spray solution derived from the formulation of the technical active ingredient in acetone/water (50:50) solution containing 0.5% Tween 20 (polyoxyethelyene sorbitan monolaurate, CAS RN 9005-64-5). Compounds are applied at 250 g/ha. The test plants were then grown in a glasshouse under controlled conditions (at 24/16° C., day/night; 14 hours light; 65% humidity) and watered twice daily. After 13 days, the test is evaluated for the percentage damage caused to the plant. The biological activities are assessed on a five point scale (5=80-100%; 4=60-79%; 3=40-59%; 2=20-39%; 1=0-19%). A blank value in the table is indicative that the compound was not tested on that species.

Setaria faberi (SETFA) [7] = experiment: B6 Pre-Emergence Efficacy—Test 3; conditions: pre-emergence application, 250 g/ha, evaluated after 13 days (Test 3)
Experimental: as §2

[8] = tested on: Ipomoea hederacea (IPOHE); experiment: B6 Pre-Emergence Efficacy—Test 3; conditions: pre-emergence application, 250 g/ha, evaluated after 13 days (Test 3)
Experimental: as §2

[9] = tested on: Abutilon theophrasti (ABUTH); experiment: B6 Pre-Emergence Efficacy—Test 3; conditions: pre-emergence application, 250 g/ha, evaluated after 13 days (Test 3)
Experimental: as §2

[10] = tested on: Amaranthus retoflexus (AMARE); experiment: B6 Pre-Emergence Efficacy—Test 3; conditions: pre-emergence application, 250 g/ha, evaluated after 13 days (Test 3)
Experimental: as §2

[11] = tested on: Echinochloa crus-galli (ECHCG); experiment: B3 Post-Emergence Efficacy—Test 3; conditions: post-emergence application, 250 g/ha, evaluated after 13 days (Test 3)
Experimental: as §1

[12] = tested on: Echinochloa crus-galli (ECHCG); experiment: B6 Pre-Emergence Efficacy—Test 3; conditions: pre-emergence application, 250 g/ha, evaluated after 13 days (Test 3)
Experimental: as §2

SMILES	percentage damage caused to the plant, five point scale, ZEAMX (Zea Mays (ZEAMX) [1])	percentage damage caused to the plant, five point scale, SETFA (Setaria faberi (SETFA) [2])	percentage damage caused to the plant, five point scale, IPOHE [3]	percentage damage caused to the plant, five point scale, ABUTH [4]	percentage damage caused to the plant, five point scale, AMARE [5]	percentage damage caused to the plant, five point scale, ZEAMX (Zea Mays (ZEAMX) [6])	percentage damage caused to the plant, five point scale, SETFA (Setaria faberi (SETFA) [7])	percentage damage caused to the plant, five point scale, IPOHE [8]	percentage damage caused to the plant, five point scale, ABUTH [9]	percentage damage caused to the plant, five point scale, AMARE [10]	percentage damage caused to the plant, five point scale, ECHCG [11]	percentage damage caused to the plant, five point scale, ECHCG [12]
Cc1nn(C)c(=O)c(-c2c(F)ccc(Cl)c2CCc2ccc(S(N)(=O)=O)cc2)c1O [Compound A-1.391]	1 (1=0-19%)	4 (4=60-79%)	3 (3=40-59%)	2 (2=20-39%)	4 (4=60-79%)	0	5 (5=80-100%)	2 (2=20-39%)	2 (2=20-39%)	5 (5=80-100%)	–	–
CSCc1ccc(CCc2c(Cl)ccc(F)c2-c2c(O)c(C)nn(C)c2=O)cc1 [Compound A-1.388, 4-[3-chloro-6-fluoro-2-[2-[4-(methylsulfanylmethyl)phenyl]ethyl]phenyl]-5-hydroxy-2,6-dimethyl-pyridazin-3-one]	4 (4=60-79%)	4 (4=60-79%)	4 (4=60-79%)	5 (5=80-100%)	5 (5=80-100%)	4 (4=60-79%)	5 (5=80-100%)	5 (5=80-100%)	5 (5=80-100%)	5 (5=80-100%)	4 (4=60-79%)	5 (5=80-100%)
Cc1nn(C)c(=O)c(-c2c(F)ccc(Cl)c2CCc2ccc(C3CCC(C)O3)cc2)c1O (stereo not shown) [Compound A-1.380]	2 (2=20-39%)	3 (3=40-59%)	3 (3=40-59%)	3 (3=40-59%)	4 (4=60-79%)	2 (2=20-39%)	1 (1=0-19%)	4 (4=60-79%)	4 (4=60-79%)	5 (5=80-100%)	1 (1=0-19%)	0
